Assays:
[1] = Plasma clearance in Beagle dog at 0.25 mg/kg, iv or 0.5 mg/kg, po; type: ADME, organism-based, Canis lupus familiaris
[2] = target: PI3-kinase p110-delta/p85-alpha (Homo sapiens, UniProt O00329); assay: Inhibition of N-terminal His6-tagged recombinant full length human p110delta/untagged recombinant full length human p85alpha expressed in baculovirus infected Sf21 insect cells using PIP2 as substrate preincubated for 15 mins followed by substrate addition and measured after 1 hr by HTRF assay
Sequence of PI3-kinase p110-delta/p85-alpha (P27986 whole entry, one chain of several): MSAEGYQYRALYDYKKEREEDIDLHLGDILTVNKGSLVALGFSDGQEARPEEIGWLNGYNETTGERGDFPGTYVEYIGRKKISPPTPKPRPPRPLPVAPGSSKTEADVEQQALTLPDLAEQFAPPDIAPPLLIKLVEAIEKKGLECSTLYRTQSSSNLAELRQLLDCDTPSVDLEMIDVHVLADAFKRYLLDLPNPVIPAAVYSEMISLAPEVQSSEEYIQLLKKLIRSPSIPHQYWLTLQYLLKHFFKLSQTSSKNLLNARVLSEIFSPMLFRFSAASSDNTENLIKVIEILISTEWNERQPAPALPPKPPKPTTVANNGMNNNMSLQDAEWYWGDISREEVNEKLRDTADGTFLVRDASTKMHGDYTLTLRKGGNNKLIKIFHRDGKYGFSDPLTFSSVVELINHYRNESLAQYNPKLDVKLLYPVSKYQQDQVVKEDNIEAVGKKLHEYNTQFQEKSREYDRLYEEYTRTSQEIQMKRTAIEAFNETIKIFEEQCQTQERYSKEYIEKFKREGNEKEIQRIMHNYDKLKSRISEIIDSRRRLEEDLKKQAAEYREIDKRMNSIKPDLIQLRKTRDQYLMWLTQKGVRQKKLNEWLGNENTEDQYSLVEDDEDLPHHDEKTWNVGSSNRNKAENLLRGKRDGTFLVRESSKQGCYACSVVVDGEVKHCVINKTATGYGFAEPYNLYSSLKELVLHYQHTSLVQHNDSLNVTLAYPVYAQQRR

[3] = Inhibition of adenosine transporter in human HeLa cells assessed as reduction in [3H]adenosine uptake preincubated for 30 mins followed by [3H]adenosine addition and measured after 60 mins; type: ADME, cell-based
[4] = target: T1, Phosphatidylinositol 4,5-bisphosphate 3-kinase catalytic subunit delta isoform (Homo sapiens, UniProt O00329); assay: Inhibition of PI3Kdelta in human whole blood assessed as reduction in antihuman IgE antibody-stimulated CD63 expression preincubated for 30 mins followed by antihuman IgE antibody stimulation and measured after 20 mins by FACS analysis; type: tissue-based
T1 sequence (O00329 whole entry): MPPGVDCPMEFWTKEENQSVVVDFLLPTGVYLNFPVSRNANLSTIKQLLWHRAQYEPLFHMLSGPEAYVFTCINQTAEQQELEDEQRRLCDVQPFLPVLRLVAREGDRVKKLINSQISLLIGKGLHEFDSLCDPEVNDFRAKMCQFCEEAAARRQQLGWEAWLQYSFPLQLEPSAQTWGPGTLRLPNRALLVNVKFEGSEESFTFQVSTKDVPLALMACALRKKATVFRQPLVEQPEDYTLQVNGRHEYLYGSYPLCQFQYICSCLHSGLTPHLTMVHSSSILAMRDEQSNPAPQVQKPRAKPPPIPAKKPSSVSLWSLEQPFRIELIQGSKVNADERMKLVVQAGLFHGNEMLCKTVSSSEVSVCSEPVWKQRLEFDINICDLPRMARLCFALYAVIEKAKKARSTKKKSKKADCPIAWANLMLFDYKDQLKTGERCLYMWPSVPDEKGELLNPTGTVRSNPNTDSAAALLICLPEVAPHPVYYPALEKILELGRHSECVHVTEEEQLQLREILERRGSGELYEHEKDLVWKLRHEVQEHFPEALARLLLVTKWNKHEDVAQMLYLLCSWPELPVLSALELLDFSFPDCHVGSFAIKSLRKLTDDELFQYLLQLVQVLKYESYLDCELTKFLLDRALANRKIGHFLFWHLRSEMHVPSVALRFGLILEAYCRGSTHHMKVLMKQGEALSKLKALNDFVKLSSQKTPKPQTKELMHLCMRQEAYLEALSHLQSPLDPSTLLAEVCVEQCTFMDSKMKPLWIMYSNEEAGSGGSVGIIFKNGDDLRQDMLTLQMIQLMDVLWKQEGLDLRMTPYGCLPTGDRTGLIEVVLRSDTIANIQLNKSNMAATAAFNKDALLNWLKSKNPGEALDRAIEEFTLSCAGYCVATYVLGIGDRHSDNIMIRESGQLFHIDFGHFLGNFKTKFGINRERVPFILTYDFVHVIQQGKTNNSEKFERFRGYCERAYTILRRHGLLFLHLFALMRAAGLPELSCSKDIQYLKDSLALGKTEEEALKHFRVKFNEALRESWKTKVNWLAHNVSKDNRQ

Phosphodiesterase 1 = Phosphodiesterase 1 (Homo sapiens, UniProt P54750+Q01064+Q14123); assay: Inhibition of PDE1 (unknown origin); type: protein assay
[5] = target: cGMP-dependent 3',5'-cyclic phosphodiesterase (Homo sapiens, UniProt O00408); assay: Inhibition of PDE2 (unknown origin)
Sequence of cGMP-dependent 3',5'-cyclic phosphodiesterase (O00408 whole entry): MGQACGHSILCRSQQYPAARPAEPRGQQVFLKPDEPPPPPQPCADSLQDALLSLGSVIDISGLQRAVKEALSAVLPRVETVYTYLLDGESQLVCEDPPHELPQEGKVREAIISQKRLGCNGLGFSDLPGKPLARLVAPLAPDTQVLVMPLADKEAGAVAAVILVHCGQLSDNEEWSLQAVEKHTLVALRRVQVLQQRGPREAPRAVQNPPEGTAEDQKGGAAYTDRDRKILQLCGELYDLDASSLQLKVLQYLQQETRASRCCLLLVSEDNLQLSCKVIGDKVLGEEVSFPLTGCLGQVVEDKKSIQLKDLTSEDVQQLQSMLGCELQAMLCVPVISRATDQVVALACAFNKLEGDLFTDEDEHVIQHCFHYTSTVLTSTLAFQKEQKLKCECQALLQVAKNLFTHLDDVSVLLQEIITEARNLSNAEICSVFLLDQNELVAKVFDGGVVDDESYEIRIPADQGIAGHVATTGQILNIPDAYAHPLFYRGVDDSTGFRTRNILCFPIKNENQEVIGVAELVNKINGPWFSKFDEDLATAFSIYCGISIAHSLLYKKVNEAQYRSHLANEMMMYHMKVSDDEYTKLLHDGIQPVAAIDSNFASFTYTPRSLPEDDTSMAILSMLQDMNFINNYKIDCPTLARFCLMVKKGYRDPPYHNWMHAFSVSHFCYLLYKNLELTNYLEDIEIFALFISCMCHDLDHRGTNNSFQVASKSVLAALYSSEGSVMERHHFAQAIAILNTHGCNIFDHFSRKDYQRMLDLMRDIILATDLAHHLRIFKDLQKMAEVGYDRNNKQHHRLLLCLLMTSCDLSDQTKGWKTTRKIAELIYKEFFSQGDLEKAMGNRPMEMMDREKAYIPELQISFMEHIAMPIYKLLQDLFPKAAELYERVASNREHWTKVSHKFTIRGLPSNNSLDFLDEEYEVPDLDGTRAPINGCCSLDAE

Phosphodiesterase 3 = Phosphodiesterase 3 (Homo sapiens, UniProt Q14432+Q13370); assay: Inhibition of PDE3 (unknown origin); type: protein assay
Phosphodiesterase 4 = Phosphodiesterase 4 (Homo sapiens, UniProt P27815+Q08499+Q07343+Q08493); assay: Inhibition of PDE4 (unknown origin); type: protein assay
[6] = target: cGMP-specific 3',5'-cyclic phosphodiesterase (Homo sapiens, UniProt O76074); assay: Inhibition of PDE5 (unknown origin)
[7] = target: High affinity cGMP-specific 3',5'-cyclic phosphodiesterase 9A (Homo sapiens, UniProt O76083); assay: Inhibition of PDE9 (unknown origin)
Sequence of High affinity cGMP-specific 3',5'-cyclic phosphodiesterase 9A (O76083 whole entry): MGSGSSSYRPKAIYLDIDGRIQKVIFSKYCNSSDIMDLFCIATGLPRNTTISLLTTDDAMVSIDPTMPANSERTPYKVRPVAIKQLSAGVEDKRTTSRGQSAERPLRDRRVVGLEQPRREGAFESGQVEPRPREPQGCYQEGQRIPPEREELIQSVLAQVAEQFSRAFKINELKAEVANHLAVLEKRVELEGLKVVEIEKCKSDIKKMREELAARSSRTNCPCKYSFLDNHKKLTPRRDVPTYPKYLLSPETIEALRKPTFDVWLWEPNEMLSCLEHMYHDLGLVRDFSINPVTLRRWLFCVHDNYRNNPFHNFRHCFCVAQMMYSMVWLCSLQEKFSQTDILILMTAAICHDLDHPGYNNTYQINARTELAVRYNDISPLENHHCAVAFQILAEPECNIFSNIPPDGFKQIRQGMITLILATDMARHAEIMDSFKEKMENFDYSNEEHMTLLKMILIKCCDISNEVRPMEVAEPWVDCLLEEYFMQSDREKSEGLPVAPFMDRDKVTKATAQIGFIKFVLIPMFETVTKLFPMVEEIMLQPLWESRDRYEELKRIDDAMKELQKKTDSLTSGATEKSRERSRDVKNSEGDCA

[8] = target: cAMP and cAMP-inhibited cGMP 3',5'-cyclic phosphodiesterase 10A (Homo sapiens, UniProt Q9Y233); assay: Inhibition of PDE10 (unknown origin)
Sequence of cAMP and cAMP-inhibited cGMP 3',5'-cyclic phosphodiesterase 10A (Q9Y233 whole entry): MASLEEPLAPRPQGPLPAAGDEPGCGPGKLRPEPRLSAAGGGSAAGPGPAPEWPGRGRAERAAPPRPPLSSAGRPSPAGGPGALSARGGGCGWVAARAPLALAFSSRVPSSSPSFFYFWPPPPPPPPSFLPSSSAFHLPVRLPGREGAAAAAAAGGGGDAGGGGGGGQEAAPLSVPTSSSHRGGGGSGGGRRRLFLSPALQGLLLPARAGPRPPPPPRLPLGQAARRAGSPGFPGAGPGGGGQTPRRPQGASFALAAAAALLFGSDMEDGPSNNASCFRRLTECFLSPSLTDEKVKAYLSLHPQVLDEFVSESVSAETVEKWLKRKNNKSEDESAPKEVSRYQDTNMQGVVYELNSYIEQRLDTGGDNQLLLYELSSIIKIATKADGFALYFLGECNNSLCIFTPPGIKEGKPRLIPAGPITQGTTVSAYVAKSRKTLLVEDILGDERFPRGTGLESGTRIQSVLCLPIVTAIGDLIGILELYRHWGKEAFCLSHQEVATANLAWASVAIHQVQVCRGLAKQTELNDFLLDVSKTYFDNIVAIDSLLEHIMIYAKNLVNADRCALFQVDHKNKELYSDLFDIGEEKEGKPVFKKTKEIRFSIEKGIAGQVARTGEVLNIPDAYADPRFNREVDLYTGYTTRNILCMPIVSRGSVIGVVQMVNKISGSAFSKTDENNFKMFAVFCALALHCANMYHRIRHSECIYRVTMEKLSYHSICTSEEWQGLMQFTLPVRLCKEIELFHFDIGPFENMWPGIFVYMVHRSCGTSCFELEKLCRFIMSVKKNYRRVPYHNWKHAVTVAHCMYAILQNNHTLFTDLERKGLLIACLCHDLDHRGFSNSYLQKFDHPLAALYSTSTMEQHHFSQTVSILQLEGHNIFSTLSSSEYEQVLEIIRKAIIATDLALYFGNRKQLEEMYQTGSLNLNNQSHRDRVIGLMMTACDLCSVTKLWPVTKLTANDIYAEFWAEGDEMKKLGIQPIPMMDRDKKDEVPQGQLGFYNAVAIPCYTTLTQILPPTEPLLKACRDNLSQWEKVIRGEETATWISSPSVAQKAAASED

[9] = Plasma clearance in Wistar Han rat at 0.5 mg/kg, iv or 1 mg/kg, po; type: ADME, organism-based
[10] = Intrinsic clearance in Wistar Han rat at 0.5 mg/kg, iv or 1 mg/kg, po; type: ADME, organism-based; settings: in vivo
[11] = Oral bioavailability in Wistar Han rat; type: ADME, organism-based; settings: in vivo
[12] = Intrinsic clearance in Beagle dog at 0.25 mg/kg, iv or 0.5 mg/kg, po; type: ADME, organism-based, Canis lupus familiaris; settings: in vivo
[13] = Volume of distribution in Beagle dog; type: ADME, Canis lupus familiaris; settings: in vivo
[14] = Unbound volume of distribution in Beagle dog; type: ADME, Canis lupus familiaris; settings: in vivo
[15] = Half-life in Beagle dog; type: ADME, Canis lupus familiaris; settings: in vivo
[16] = Oral bioavailability in Beagle dog; type: ADME, organism-based, Canis lupus familiaris; settings: in vivo
[17] = Protein binding in human plasma; type: ADME, cell-free; settings: read-out: PPB (converted)
Rattus norvegicus [18] = assay: Hemodynamic activity in telemetered rat assessed as effect on arterial blood pressure at 60 mg/kg; type: ADME, organism-based; settings: in vivo
Rattus norvegicus [19] = assay: Hemodynamic activity in telemetered rat assessed as effect on heart rate at 60 mg/kg; type: ADME, organism-based; settings: in vivo
[20] = fAUC in telemetered rat at 60 mg/kg; type: ADME, organism-based; settings: in vivo
[21] = fCmax in telemetered rat at 60 mg/kg; type: ADME, organism-based; settings: in vivo
[22] = fCmax in Beagle dog at 25 mg/kg administered for 8 days; type: ADME, organism-based, Canis lupus familiaris; settings: in vivo, 192 h
[23] = Toxicity in Beagle dogs assessed as body weight loss at 25 mg/kg administered for 8 days; type: organism-based, Canis lupus familiaris; settings: dog, in vivo, 192 h
[24] = Toxicity in Beagle dog assessed as decrease in basophil count at 25 mg/kg administered for 8 days; type: organism-based, Canis lupus familiaris; settings: in vivo, 192 h
Canis familiaris = assay: Hemodynamic activity in Beagle dog at 25 mg/kg administered for 8 days; type: ADME, organism-based, Canis lupus familiaris; settings: in vivo, 192 h
[25] = Toxicity in Beagle dog assessed as decrease in RBC count at 25 mg/kg administered for 8 days; type: organism-based, Canis lupus familiaris; settings: in vivo, 192 h
[26] = Lipophilicity, log D of the compound; type: physicochemical; settings: octanol/water
[27] = Solubility of the compound; type: physicochemical
Cytochrome P450 = assay: Inhibition of cytochrome P450 (unknown origin); type: ADME, protein assay; settings: human
[28] = Drug recovery in rat bile after 24 hrs; type: ADME; settings: read-out: Drug recovery
Homo sapiens [29] = species on record: Homo sapiens; assay: Selectivity ratio of IC50 for N-terminal His6-tagged recombinant full length human p110alpha/untagged recombinant full length human p85alpha expressed in baculovirus infected Sf21 insect cells to IC50 for N-terminal His6-tagged recombinant full length human p110delta/untagged recombinant full length human p85alpha expressed in baculovirus infected Sf21 insect cells
Homo sapiens [30] = species on record: Homo sapiens; assay: Selectivity ratio of IC50 for N-terminal His6-tagged recombinant full length human PI3Kgamma expressed in baculovirus infected Sf21 cells to IC50 for N-terminal His6-tagged recombinant full length human p110delta/untagged recombinant full length human p85alpha expressed in baculovirus infected Sf21 insect cells
[31] = Intrinsic clearance in rat microsomes; type: ADME, Microsome
[32] = Intrinsic clearance in rat hepatocytes; type: ADME, cell-based, Hepatocyte; settings: read-out: CLH

clearance [1]: 5.8 mL/min/kg
IC50 [2]: 0.0039 µM
IC50 [3]: > 10 µM
IC50 [4]: 0.415 µM
IC50 (Phosphodiesterase 1): > 50 µM
IC50 [5]: > 50 µM
IC50 (Phosphodiesterase 3): > 50 µM
IC50 (Phosphodiesterase 4): > 50 µM
IC50 [6]: > 50 µM
IC50 [7]: > 50 µM
IC50 [8]: > 50 µM
clearance [9]: 41 mL/min/kg
CL [10]: 126 mL/min/kg
bioavailability [11]: 55%
CL [12]: 10 mL/min/kg
Vd [13]: 0.9 L/kg
Vdu [14]: 3 L/kg
half-life [15]: 1.5 h
bioavailability [16]: 100%
fraction unbound [17]: 0.83
fCmax [22]: 46 µM
logD [26]: 1.1
solubility [27]: > 10000 µg/mL
inhibition (INH) (Cytochrome P450): Not Active
dose excreted at 24 h [28]: 2%
CLint scaled [31]: < 110 mL/min/kg
CLint scaled [32]: < 40 mL/min/kg
Compound: CCn1ncc(-c2nc3c(O[C@H]4CCN(C(=O)C5CCOCC5)C4)ncnc3n2C)c1C
Activity (Rattus norvegicus [18]): Non-Toxic
Activity (Rattus norvegicus [19]): Non-Toxic
fAUC [20]: 61 µM·h
fCmax [21]: 44 µM
Activity [23]: Non-Toxic
Activity [24]: Non-Toxic
Activity (Canis familiaris): Non-Toxic
Activity [25]: Non-Toxic
Ratio IC50 (Homo sapiens [29]): 69
Ratio IC50 (Homo sapiens [30]): 970

From ChEMBL document CHEMBL4346703, “Structure Overhaul Affords a Potent Purine PI3Kδ Inhibitor with Improved Tolerability” (J Med Chem, 2019)
